test system: Huh-7 HCV replicon cells (genotype 1a); assay: Replicon ELISA cell based assay, genotype 1a; design: species or system HCV genotype 1a; settings: Hepatitis C virus, Huh-7 genotype 1a replicon, 72 hours
Procedure: Replicon ELISA Cell Based Assay
100 μL of medium containing 10% FCS were added to each well of clear, flat-bottomed 96 well microplates, excepting wells in the top row. Test compound was diluted in assay medium to twice the final required starting concentration from a 40 mM stock solution in DMSO. 200 μL of the starting dilution were introduced into two wells each in the top row and doubling dilutions made down the plate by the sequential transfer of 100 μL aliquots with thorough mixing in the wells; the final 100 μL were discarded. The two bottom rows were not used for compound dilutions. Huh-7 HCV replicon cell monolayers nearing confluency were stripped from growth flasks with versene-trypsin solution and the cells were resuspended in assay medium at either 2×10^5 cells/mL (sub-line 5-15; genotype 1b; Lohmann, V., Korner, F., Koch, J-O., Herian, U., Thielmann, L. and Bartenschlager, R., 1999, Science, 285, pp 110-113) or at 3×10^5 cells/mL (genotype 1a; Gu, B., Gates, A.T., Isken, O., Behrens, S. E. and Sarisky, R. T., J. Virol., 2003, 77, 5352-5359). 100 μL of cell suspension were added to all wells and the plates incubated at 37° C. for 72 hours in a 5% CO2 atmosphere.
Following incubation, the assay medium was aspirated from the plates. The cell sheets were washed by gentle immersion in phosphate buffered saline (PBS), which was then aspirated off, and fixed with acetone:methanol (1:1) for 5 minutes. Following a further wash with PBS, 100 μL of ELISA diluent (PBS+0.05% v/v Tween 20+2% w/v skimmed milk powder) were added to all wells and the plates incubated at 37° C. for 30 minutes on an orbital platform. The diluent was removed and each well then received 50 μL of a 1/200 dilution of anti-HCV specific, murine, monoclonal antibody (either Virostat #1872 or #1877), except for wells in one of the compound-free control rows which received diluent alone to act as negative controls. The plates were incubated at 37° C. for 2 hours and washed 3 times with PBS/0.05% Tween 20, then 50 μL of horseradish peroxidase conjugated, anti-mouse, rabbit polyclonal serum (Dako #P0260), diluted 1/1000, were added to all wells. The plates were incubated for a further hour, the antibody removed and the cell sheets washed 5 times with PBS/Tween and blotted dry. The assay was developed by the addition of 50 μL of ortho-phenylenediamine/peroxidase substrate in urea/citrate buffer (SigmaFast, Sigma #P-9187) to each well, and colour allowed to develop for up to 15 minutes. The reaction was stopped by the addition of 25 μL per well of 2 M sulphuric acid and the plates were read at 490 nm on a Fluostar Optima spectrophotometer.
The substrate solution was removed and the plates were washed in tap water, blotted dry and the cells stained with 5% carbol fuchsin in water for 30 minutes. The stain was discarded and the cell sheets washed, dried and examined microscopically to assess cytotoxicity.
The absorbance values from all compound-free wells that had received both primary and secondary antibodies were averaged to obtain a positive control value. The mean absorbance value from the compound-free wells that had not received the primary antibody was used to provide the negative (background) control value. The readings from the duplicate wells at each compound concentration were averaged and, after the subtraction of the mean background from all values, were expressed as a percentage of the positive control signal. The quantifiable and specific reduction of expressed protein detected by the ELISA in the presence of a drug can be used as a measure of replicon inhibition. GraFit software (Erithacus Software Ltd.) was used to plot the curve of percentage inhibition against compound concentration and derive the 50% inhibitory concentration (IC50) for the compound.

| SMILES | IC50 [µM] |
| --- | --- |
| COC[C@H]1C[C@@](CC(C)C)(C(=O)O)N(C(=O)c2ccc(C(C)(C)C)c(OC)c2)[C@H]1c1nccs1 (racemic) [Compound A, rel-(2S,4S,5R)-2-isobutyl-1-(3-methoxy-4-tert-butylbenzoyl)-4-methoxymethyl-5-(1,3-thiazol-2-yl)pyrrolidine-2-carboxylic acid, reference compound] | 10 to 100 |
| COC[C@H]1C[C@@](CC(C)C)(C(=O)O)N(C(=O)c2ccc(C(C)(C)C)c(OC)c2)[C@H]1c1ncc(C)s1 (racemic) [Compound C, rel-(2S,4S,5R)-2-isobutyl-1-(3-methoxy-4-tert-butylbenzoyl)-4-methoxymethyl-5-(5-methyl-1,3-thiazol-2-yl)pyrrolidine-2-carboxylic acid, reference compound] | 10 to 100 |
| COC[C@H]1C[C@@](Cc2ccccc2)(C(=O)O)N(C(=O)c2ccc(C(C)(C)C)c(OC)c2)[C@H]1c1nccs1 (racemic) [Compound E, rel-(2R,4S,5R)-2-benzyl-1-(3-methoxy-4-tert-butylbenzoyl)-4-methoxymethyl-5-(1,3-thiazol-2-yl)-pyrrolidine-2-carboxylic acid, reference compound] | > 100 |
| COC[C@H]1C[C@@](Cc2cscn2)(C(=O)O)N(C(=O)c2ccc(C(C)(C)C)c(OC)c2)[C@H]1c1ncc(C)s1 (racemic) [Example 1, rel-(2R,4S,5R)-1-(3-Methoxy-4-tert-butylbenzoyl)-4-(methoxymethyl)-5-(5-methyl-1,3-thiazol-2-yl)-2-(1,3-thiazol-4-ylmethyl)pyrrolidine-2-carboxylic acid] | < 10 |
| COC[C@H]1C[C@@](Cc2cscn2)(C(=O)O)N(C(=O)c2ccc(C(C)(C)C)c(OC)c2)[C@H]1c1nccs1 (racemic) [Example 3, rel-(2R,4S,5R)-1-(3-Methoxy-4-tert-butylbenzoyl)-4-(methoxymethyl)-5-(1,3-thiazol-2-yl)-2-(1,3-thiazol-4-ylmethyl)pyrrolidine-2-carboxylic acid] | < 10 |
| COC[C@H]1C[C@@](Cc2ccsn2)(C(=O)O)N(C(=O)c2ccc(C(C)(C)C)c(OC)c2)[C@H]1c1nccs1 (racemic) [Example 4, rel-(2R,4S,5R)-1-(3-Methoxy-4-tert-butylbenzoyl)-4-(methoxymethyl)-5-(1,3-thiazol-2-yl)-2-(1,2-thiazol-3-ylmethyl)pyrrolidine-2-carboxylic acid] | < 10 |
| COC[C@H]1C[C@@](Cn2cccn2)(C(=O)O)N(C(=O)c2ccc(C(C)(C)C)c(OC)c2)[C@H]1c1nccs1 (racemic) [Example 6, rel-(2R,4S,5R)-1-(3-Methoxy-4-tert-butylbenzoyl)-4-(methoxymethyl)-2-(1H-pyrazol-1-ylmethyl)-5-(1,3-thiazol-2-yl)pyrrolidine-2-carboxylic acid] | < 10 |
| COC[C@H]1C[C@@](Cc2nccs2)(C(=O)O)N(C(=O)c2ccc(C(C)(C)C)c(OC)c2)[C@H]1c1ncc(C)s1 (racemic) [Example 8, rel-(2R,4S,5R)-1-(3-Methoxy-4-tert-butylbenzoyl)-4-(methoxymethyl)-5-(5-methyl-1,3-thiazol-2-yl)-2-(1,3-thiazol-2-ylmethyl)pyrrolidine-2-carboxylic acid] | < 10 |
| COC[C@H]1C[C@@](Cc2ccsn2)(C(=O)O)N(C(=O)c2ccc(C(C)(C)C)c(OC)c2)[C@H]1c1ncc(C)s1 (racemic) [Example 9, rel-(2R,4S,5R)-1-(3-Methoxy-4-tert-butylbenzoyl)-4-(methoxymethyl)-5-(5-methyl-1,3-thiazol-2-yl)-2-(1,2-thiazol-3-ylmethyl)pyrrolidine-2-carboxylic acid] | < 10 |
| COC[C@H]1C[C@@](Cn2cccn2)(C(=O)O)N(C(=O)c2ccc(C(C)(C)C)c(OC)c2)[C@H]1c1ncc(C)s1 (racemic) [Example 10, rel-(2R,4S,5R)-1-(3-Methoxy-4-tert-butylbenzoyl)-4-(methoxymethyl)-5-(5-methyl-1,3-thiazol-2-yl)-2-(1H-pyrazol-1-ylmethyl)pyrrolidine-2-carboxylic acid] | < 10 |
| COC[C@H]1C[C@@](Cn2cccn2)(C(=O)O)N(C(=O)c2ccc(C(C)(C)C)c(OC)c2)[C@H]1c1nccs1 (single isomer, unassigned) [Example 7] | < 10 |
| COCC1CC(CC(C)C)(C(=O)O)N(C(=O)c2ccc(C(C)(C)C)c(OC)c2)C1c1ncc(C)s1 (single isomer, unassigned; enantiomer a) [Compound D, reference compound] | 10 to 100 |
| COC[C@H]1C[C@@](Cc2cscn2)(C(=O)O)N(C(=O)c2ccc(C(C)(C)C)c(OC)c2)[C@H]1c1ncc(C)s1 (single isomer, unassigned; enantiomer a) [Example 2] | < 10 |
| COC[C@H]1C[C@@](Cc2ccsn2)(C(=O)O)N(C(=O)c2ccc(C(C)(C)C)c(OC)c2)[C@H]1c1nccs1 (single isomer, unassigned; enantiomer a) [Example 5] | < 10 |
| COC[C@H]1C[C@@](Cn2cccn2)(C(=O)O)N(C(=O)c2ccc(C(C)(C)C)c(OC)c2)[C@H]1c1ncc(C)s1 (single isomer, unassigned; enantiomer a) [Example 11] | < 10 |
| COC[C@H]1C[C@@](Cc2cscn2)(C(=O)O)N(C(=O)c2ccc(C(C)(C)C)c(OC)c2)[C@H]1c1nccs1 (single isomer, unassigned; enantiomer a) [Example 12] | < 10 |
| COC[C@H]1C[C@@](CC(C)C)(C(=O)O)N(C(=O)c2ccc(C(C)(C)C)c(OC)c2)[C@H]1c1nccs1 [Compound B, (2S,4S,5R)-2-isobutyl-1-(3-methoxy-4-tert-butylbenzoyl)-4-methoxymethyl-5-(1,3-thiazol-2-yl)pyrrolidine-2-carboxylic acid, reference compound] | 10 to 100 |
